Source: patent US8101768B2, “Cyclic amine compound and pest control agent” (Nippon Soda Co., Ltd., priority 2004, dated 2012)

Key:
Type in all cases: in vivo
army worms = assay: Effect on Army Worm (artificial feed test); conditions: 10 μg of compound on 0.2 ml artificial feed, second instar, 25° C., 5 days
Description: Test feeds were prepared by filling plastic test tubes (capacity of 1.4 ml) with 0.2 ml of a commercial artificial feed (Insecta LFS, manufactured by Nosan Corporation). Each of 1% chemical compound solutions was prepared by using DMSO (containing 0.5% tween 20), which was then dropped into the surface of the feed in amount of 10 μg of the respective chemical compounds. 2 army worms, each of which was in the second instar, were inoculated into each of the test tubes, which were then sealed by their plastic caps. After they were left at 25° C. for 5 days, the rate of killed army worms and their feed consumptions were investigated. The test was repeated twice. […] 1-8, 1-9, 1-13, 1-15, 1-17, 1-22, 1-23, 1-27, 1-39, 1-45, 1-46, 1-59, 1-69, 1-72, 1-74, 1-75, 1-79, 1-80, 1-83, 1-95, 1-97, 1-981-100, 1-105, 1-108, 1-114, 1-133, 1-140, 1-147, 1-153, 1-165, 1-166, 1-181, 1-182, 1-183, 1-184, 1-187, 1-189, 1-190,

[1] = system: organophosphorous agent resistant two-spotted spider mites; assay: Effect on Two-spotted Spider Mite (spray on kidney bean leaves); conditions: 125 ppm, water dispersible powder of Formulation Example 1 sprayed, 17 female adults, 25° C., 65% humidity, 3 days
How it was run: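 Kidney bean first leaves bearing 17 adult female organophosphate-resistant mites were sprayed with a water-dispersible powder formulation at 125 ppm. Held 3 days at 25 °C, 65% humidity, then adult mortality scored; run in duplicate.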

[2] = system: acaricide resistant citrus red mites; assay: Effect on Citrus Red Mite (spray on mandarin orange leaves); conditions: 31 ppm, emulsifiable concentrate of Formulation Example 2 sprayed, 10 female adults, 25° C., 65% humidity
Description: Effect on Citrus Red Mite
10 female adults of acaricide resistant citrus red mites were inoculated onto leaves of a mandarin orange placed on dishes, onto which each of liquid agents, diluted with water so as to adjust the respective concentration of the chemical compounds to 31 ppm according to the formulation of the emulsifiable concentrate shown in the aforementioned Formulation Example 2, was sprayed by using a rotating sparge tower. After they were left in a thermostatic chamber at 25° C. in 65% humidity for 3 days, and were then removed from the dishes, eggs laid for 3 days were investigated whether they could grow to adults or not on the eleventh day. As the results, the following chemical compounds killed 100% of the adults. 1-13, 1-15, 1-22, 1-27, 1-45, 1-54, 1-59, 1-63, 1-66, 1-69, 1-71, 1-72, 1-75, 1-80, 1-88, 1-89, 1-92, 1-93, 1-94, 1-97, 1-98, 1-100, 1-102, 1-105, 1-108, 1-133, 1-136, 1-142, 1-153, 1-181, 1-183, 1-186, 1-187, 1-188, 1-189, 1-190, 1-191,

| Structure (SMILES) | killed 100% of the army worms, or inhibited their feed consumptions, in comparison with a solvent control area, to 10% or less (effective) (army worms) | rate of killed adults [1] [%] | killed ... of the adults (eggs laid for 3 days investigated whether they could grow to adults on the eleventh day) [2] [%] |
| --- | --- | --- | --- |
| O=S(=O)(Oc1ccc(OC2CCN(c3ccc(C(F)(F)F)cn3)CC2)cc1)C(F)(F)F [1-153] | effective | 100 | 100 |
| Cc1cc(OC(F)(F)F)ccc1OC1CCN(c2ccc(C(F)(F)F)cn2)CC1 [1-46] | effective | 100 |  |
| FC(F)(F)c1ccc(N2CCC(Oc3ccc(C(F)(F)F)cc3OCCCl)CC2)nc1 [1-140] | effective | 100 |  |
| FC(F)(F)c1ccc(N2CCC(Oc3ccc(Br)c(C(F)(F)F)c3)CC2)nc1 [1-23, 4-[4-bromo-3-(trifluoromethyl)phenoxy]-1-[5-(trifluoromethyl)-2-pyridyl]-piperidine] | effective | 100 |  |
| CCCOc1cc(C(F)(F)F)ccc1OC1CCN(c2ccc(C(F)(F)F)cn2)CC1(C)C(=O)OCC (stereo not shown) [1-95] | effective |  |  |
| Fc1ccc(OC2CCN(c3ccc(C(F)(F)F)cn3)CC2)cc1C(F)(F)F [1-9] | effective | 100 |  |
| CCCOCc1cc(C(F)(F)F)ccc1OC1CCN(c2ccc(C(F)(F)F)cn2)CC1 [1-182] | effective | 100 |  |
| FC(F)(F)c1ccc(N2CCC(Oc3c(Cl)cc(OCC=C(Cl)Cl)c(Cl)c3Cl)CC2)nc1 [1-166] | effective |  |  |
| COCOC(C)c1cc(C(F)(F)F)ccc1OC1CCN(c2ccc(C(F)(F)F)cn2)CC1 (stereo not shown) [1-184] | effective | 100 |  |
| O=[N+]([O-])c1ccc(OC2CCN(c3ccc(C(F)(F)F)cn3)CC2)cc1C(F)(F)F [1-39, 4-[4-nitro-3-(trifluoromethyl)phenoxy]-1-[5-(trifluoromethyl)-2-pyridyl]-piperidine] | effective |  |  |
| FC(F)(F)Sc1ccc(OC2CCN(c3ccc(C(F)(F)F)cn3)CC2)cc1 [1-147] | effective | 100 |  |
| Fc1cc(C(F)(F)F)ccc1OC1CCN(c2ccc(C(F)(F)F)cn2)CC1 [1-8] | effective | 100 |  |
| C=CCc1cc(C(F)(F)F)ccc1OC1CCN(c2ccc(C(F)(F)F)cn2)CC1 [1-74] | effective | 100 |  |
| CCOCc1cc(C(F)(F)F)ccc1OC1C2CCC1CN(c1ccc(C(F)(F)F)cn1)C2 (stereo not shown) [5-220] |  | 100 | 100 |
| COCCOc1cc(C(F)(F)F)ccc1O[C@@H]1[C@@H]2CC[C@H]1CN(c1ccc(C(F)(F)F)cn1)C2 [5-124] |  | 100 | 100 |
| Cc1noc(-c2cc(C(F)(F)F)ccc2O[C@@H]2[C@@H]3CC[C@H]2CN(c2ccc(C(F)(F)F)cn2)C3)n1 [5-256] |  | 100 | 100 |
| CCCC(O)c1cc(C(F)(F)F)ccc1OC1C2CCC1CN(c1ccc(C(F)(F)F)cn1)C2 (stereo not shown) [5-227] |  | 100 | 100 |
| CCS(=O)(=O)Oc1cc(C(F)(F)F)ccc1OC1C2CCC1CN(c1ccc(C(F)(F)F)cn1)C2 (stereo not shown) [5-162] |  | 100 | 100 |
| FC(F)(F)c1cnc(N2CCC(Oc3c(Cl)cc(OCC=C(Cl)Cl)c(Cl)c3Cl)CC2)c(Cl)c1 [1-165] | effective |  |  |

| Structure (SMILES) | killed 100% of the army worms, or inhibited their feed consumptions, in comparison with a solvent control area, to 10% or less (effective) (army worms) | rate of killed adults [1] [%] | killed ... of the adults (eggs laid for 3 days investigated whether they could grow to adults on the eleventh day) [2] [%] |
| --- | --- | --- | --- |
| CCCOc1cc(C(F)(F)F)ccc1OC1CCN(c2ccc(C)cn2)CC1 [1-94] |  | 100 | 100 |
| CC(C)(C)COc1cc(C(F)(F)F)ccc1OC1CCN(c2ccc(C(F)(F)F)cn2)CC1 [1-114] | effective | 100 |  |
| CC1COC(c2cc(C(F)(F)F)ccc2O[C@@H]2[C@@H]3CC[C@H]2CN(c2ccc(C(F)(F)F)cn2)C3)N1 (stereo partly shown) [5-259] |  | 100 | 100 |
| CCOCc1cc(C(F)(F)F)ccc1OC1CCN(c2ccc(C(F)(F)F)cn2)CC1 [1-66] |  | 100 | 100 |
| CCOC(C)OCc1cc(C(F)(F)F)ccc1OC1C2CCC1CN(c1ccc(C(F)(F)F)cn1)C2 (stereo not shown) [5-229] |  | 100 | 100 |
| C=C(C)COc1cc(C(F)(F)F)ccc1OC1C2CCC1CN(c1ccc(C(F)(F)F)cn1)C2 (stereo not shown) [5-174] |  | 100 | 100 |
| COC(C)OCc1cc(C(F)(F)F)ccc1O[C@@H]1[C@@H]2CC[C@H]1CN(c1ccc(C(F)(F)F)cn1)C2 (stereo partly shown) [5-72] |  | 100 | 100 |
| CC(C)CC(O)c1cc(C(F)(F)F)ccc1OC1C2CCC1CN(c1ccc(C(F)(F)F)cn1)C2 (stereo not shown) [5-239] |  | 100 | 100 |
| CC1(C)COC(c2cc(C(F)(F)F)ccc2O[C@@H]2[C@@H]3CC[C@H]2CN(c2ccc(C(F)(F)F)cn2)C3)N1 (stereo partly shown) [5-262] |  | 100 | 100 |
| FC(F)(F)c1ccc(N2CCC(Oc3cc(C(F)(F)F)cc(C(F)(F)F)c3)CC2)nc1 [1-79] | effective | 100 |  |
| CC(C)(C)OC(=O)c1cc(C(F)(F)F)ccc1O[C@@H]1[C@@H]2CC[C@H]1CN(c1ccc(C(F)(F)F)cn1)C2 [5-257] |  | 100 | 100 |
| C=CCOc1cc(C(F)(F)F)ccc1OC1CCN(c2ccc(C(F)(F)F)cn2)CC1 [1-142] |  | 100 | 100 |
| FC(F)(F)c1ccc(OC2CCN(c3ncc(C(F)(F)F)cc3Cl)CC2)cc1 [1-83] | effective |  |  |
| CC=CCOc1cc(C(F)(F)F)ccc1OC1C2CCC1CN(c1ccc(C(F)(F)F)cn1)C2 (mixture of isomers) [5-175] |  | 100 | 100 |
| CCCNc1cc(C(F)(F)F)ccc1OC1C2CCC1CN(c1ccc(C(F)(F)F)cn1)C2 (stereo not shown) [5-190] |  | 100 | 100 |
| FC(F)(F)c1ccc(N2CCC(Oc3c(Cl)cc(C(F)(F)F)cc3Br)CC2)nc1 [1-17] | effective | 100 |  |
| COCc1cc(C(F)(F)F)ccc1OC1CCN(c2ccc(C(F)(F)F)cn2)CC1 [1-63] |  | 100 | 100 |
| CC(C)OCc1cc(C(F)(F)F)ccc1OC1C2CCC1CN(c1ccc(C(F)(F)F)cn1)C2 (stereo not shown) [5-225] |  | 100 | 100 |
